Data on eight compounds can be found in PubChem BioAssay AID624129 (Sanford-Burnham Center for Chemical Genomics, 2012).

What all share (assay): CXCR6 receptor antagonists, dose response, cell-based, beta-arrestin, DiscoveRx, APJ panel, uHTS hits (AID 624129)
For experiment [1], the target named is Beta-galactosidase (Escherichia coli) (UniProt Q8VNN2). The conditions noted are these: CXCR6 beta-arrestin (DiscoveRx) antagonist cell assay, b-galactosidase.
For experiment [2], the target named is C-C chemokine receptor type 6 (Homo sapiens) (UniProt P51684). The following applies: CXCR6 beta-arrestin (DiscoveRx) antagonist cell assay.
For experiment [3], the target named is C-X-C chemokine receptor type 6 (Homo sapiens) (UniProt O00574). The conditions noted are these: CXCR6 beta-arrestin (DiscoveRx) antagonist cell assay.
Chain of C-X-C chemokine receptor type 6 (Homo sapiens) (O00574 whole entry, looked up): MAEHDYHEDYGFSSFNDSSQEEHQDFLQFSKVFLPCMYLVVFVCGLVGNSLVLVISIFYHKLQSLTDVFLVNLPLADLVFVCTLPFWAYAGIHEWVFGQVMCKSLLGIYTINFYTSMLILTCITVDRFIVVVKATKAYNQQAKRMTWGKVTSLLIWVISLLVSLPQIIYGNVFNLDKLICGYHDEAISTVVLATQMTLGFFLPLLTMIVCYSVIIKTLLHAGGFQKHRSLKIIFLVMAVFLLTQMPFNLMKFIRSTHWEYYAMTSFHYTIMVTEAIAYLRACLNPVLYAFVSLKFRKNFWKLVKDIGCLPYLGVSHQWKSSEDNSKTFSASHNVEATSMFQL
The target in experiment [4] is Apelin receptor (Homo sapiens) (UniProt P35414). The following applies: CXCR6 beta-arrestin (DiscoveRx) antagonist cell assay, APJ.
Where [5] appears, read: dose range 1, mean IC50 across replicates.
The mark [6] stands for this setting: CCR6, dose range 1, mean IC50 across replicates.
The mark [7] stands for this setting: CXCR6, dose range 1, mean IC50 across replicates.
Where [8] appears, read: CXCR6, run 1, dose range 2, at 80 µM (top of the series).

The structures appear in SMILES notation. The source made the active and inactive calls. How the calls were made is not given here.

Chain of Beta-galactosidase (Escherichia coli) (Q8VNN2 whole entry, looked up): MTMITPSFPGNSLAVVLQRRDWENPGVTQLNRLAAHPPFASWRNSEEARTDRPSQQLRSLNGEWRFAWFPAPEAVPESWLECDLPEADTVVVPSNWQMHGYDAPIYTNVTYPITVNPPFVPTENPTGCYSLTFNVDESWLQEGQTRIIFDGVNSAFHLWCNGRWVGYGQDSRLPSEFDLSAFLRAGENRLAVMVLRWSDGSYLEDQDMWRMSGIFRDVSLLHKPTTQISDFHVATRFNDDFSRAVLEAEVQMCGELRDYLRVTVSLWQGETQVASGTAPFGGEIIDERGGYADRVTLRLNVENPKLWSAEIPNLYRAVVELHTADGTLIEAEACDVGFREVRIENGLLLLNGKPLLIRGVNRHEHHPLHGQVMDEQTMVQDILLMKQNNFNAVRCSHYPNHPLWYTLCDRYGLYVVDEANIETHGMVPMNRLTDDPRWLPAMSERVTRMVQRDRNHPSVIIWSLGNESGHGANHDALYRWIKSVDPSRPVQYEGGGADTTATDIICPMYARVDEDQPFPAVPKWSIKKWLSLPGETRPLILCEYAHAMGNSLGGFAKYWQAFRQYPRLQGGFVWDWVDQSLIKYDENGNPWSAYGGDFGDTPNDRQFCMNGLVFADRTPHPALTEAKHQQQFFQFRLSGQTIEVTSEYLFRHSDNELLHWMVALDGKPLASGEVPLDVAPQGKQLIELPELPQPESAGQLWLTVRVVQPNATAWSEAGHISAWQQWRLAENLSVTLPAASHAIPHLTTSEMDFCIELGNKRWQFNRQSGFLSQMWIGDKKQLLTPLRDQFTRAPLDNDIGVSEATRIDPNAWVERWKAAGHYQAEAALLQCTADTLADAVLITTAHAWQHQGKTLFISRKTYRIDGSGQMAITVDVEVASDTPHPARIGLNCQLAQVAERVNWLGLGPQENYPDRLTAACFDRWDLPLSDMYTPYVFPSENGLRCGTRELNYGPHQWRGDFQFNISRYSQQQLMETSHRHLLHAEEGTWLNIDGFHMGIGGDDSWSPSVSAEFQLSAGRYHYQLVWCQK

For the compound `CC(=O)NC(=S)Nc1sc2c(c1C(N)=O)CCC(C)C2` (stereo not drawn), the IC50 (as a rule, the midpoint of a concentration-inhibition curve) in experiment [1] (dose range 1) was > 80 µM (inactive); in experiment [1] (setting [5]) it was more than 80 µM; in experiment [2] (setting [6]), more than 80 µM; in experiment [2] (CCR6, run 2, dose range 1) it was more than 80 µM; in experiment [3] (CXCR6, dose range 1) it was > 80 µM (inactive); in experiment [3] (setting [7]), more than 80 µM. Moreover, the IC50 is more than 80 µM in experiment [3] (CXCR6, run 2, dose range 1); more than 80 µM in experiment [4] (setting [5]); more than 80 µM in experiment [4] (run 2, dose range 1); more than 80 µM in experiment [4] (run 3, dose range 1). The inhibition (as a rule, the relative decrease from the control value, in per cent) in experiment [3] (setting [8]) is -35.8%.

Regarding `Cc1[nH]n(-c2ccccc2)c(=S)c1C=NCCCN=Cc1c(C)[nH]n(-c2ccccc2)c1=S`, the IC50 in experiment [1] (dose range 1) was > 80 µM (inactive); in experiment [1] (setting [5]), more than 80 µM; in experiment [2] (CCR6, dose range 1), 0.999 µM; in experiment [2] (setting [6]), 1.43 µM; in experiment [2] (CCR6, run 2, dose range 1), 1.86 µM; in experiment [3] (CXCR6, dose range 1), 1.92 µM. Moreover, the IC50 in experiment [3] (setting [7]) was 1.55 µM; in experiment [3] (CXCR6, run 1, dose range 2), 1.07 µM; in experiment [3] (CXCR6, run 2, dose range 1) it was 2.07 µM; in experiment [3] (CXCR6, run 2, dose range 2), 1.14 µM; in experiment [4] (dose range 1), 2.44 µM; in experiment [4] (setting [5]), 3.07 µM. Further, the concentration for half-maximal inhibition (IC50) in experiment [4] (run 2, dose range 1) amounted to 3.21 µM; in experiment [4] (run 3, dose range 1), 3.56 µM.

For the compound `CCOC(=O)c1c(SCCN2CCCC2)n(-c2ccccc2)c(=S)n(-c2ccccc2)c1=O`, the IC50 in experiment [1] (dose range 1) is > 80 µM (inactive); in experiment [1] (setting [5]), more than 80 µM; in experiment [2] (setting [6]), more than 80 µM; in experiment [2] (CCR6, run 2, dose range 1), more than 80 µM; in experiment [3] (CXCR6, dose range 1), > 80 µM (inactive); in experiment [3] (setting [7]), more than 80 µM. The IC50 was more than 80 µM in experiment [3] (CXCR6, run 2, dose range 1); more than 80 µM in experiment [4] (setting [5]); more than 80 µM in experiment [4] (run 2, dose range 1); more than 80 µM in experiment [4] (run 3, dose range 1). In experiment [3] (setting [8]), the inhibition is -8.52%.

As to `O=C1c2sc3nc4ccccc4n3c2C(=O)N1c1ccccc1Cl`, the IC50 was 30.8 µM in experiment [1] (dose range 1); 30.8 µM in experiment [1] (setting [5]); 16.9 µM in experiment [2] (CCR6, dose range 1); 14.9 µM in experiment [2] (setting [6]); 12.9 µM in experiment [2] (CCR6, run 2, dose range 1); 21 µM in experiment [3] (setting [7]). The IC50 in experiment [3] (CXCR6, run 2, dose range 1) was 15 µM; in experiment [4] (dose range 1), 23.5 µM; in experiment [4] (setting [5]), 18 µM; in experiment [4] (run 2, dose range 1) it was 16.9 µM; in experiment [4] (run 3, dose range 1), 13.5 µM. Moreover, the IC50 result in experiment [3] (CXCR6, dose range 1) was “inactive”. Further, in experiment [3] (setting [8]), the inhibition turned out to be 103%.

In the case of `S=C(NCCCN1CCOCC1)Nc1ccc(Cl)cc1`, the half-inhibitory concentration (IC50) in experiment [1] (dose range 1) is 26.5 µM; in experiment [1] (setting [5]), 26.5 µM; in experiment [2] (CCR6, dose range 1) it was 7.62 µM; in experiment [2] (setting [6]) it was 9.33 µM; in experiment [2] (CCR6, run 2, dose range 1), 11 µM; in experiment [3] (setting [7]), 12.9 µM. Further, the half-inhibitory concentration (IC50) is 11 µM in experiment [3] (CXCR6, run 2, dose range 1); 13.7 µM in experiment [4] (dose range 1); 14.5 µM in experiment [4] (setting [5]); 16 µM in experiment [4] (run 2, dose range 1); 13.7 µM in experiment [4] (run 3, dose range 1). Besides, in experiment [3] (CXCR6, dose range 1), the IC50 result was “inactive”. Moreover, the inhibition in experiment [3] (setting [8]) is 118%.

On to `O=c1cc(CSc2ccc(Cl)cc2)nc(-c2ccccn2)[nH]1`, for which the IC50 in experiment [1] (dose range 1) was > 80 µM (inactive); in experiment [1] (setting [5]), more than 80 µM; in experiment [2] (CCR6, dose range 1), 2.87 µM; in experiment [2] (setting [6]) it was 4.41 µM; in experiment [2] (CCR6, run 2, dose range 1), 5.95 µM; in experiment [3] (CXCR6, dose range 1) it was 4.35 µM. For the same compound, the half-inhibitory concentration (IC50) in experiment [3] (setting [7]) was 3.68 µM; in experiment [3] (CXCR6, run 1, dose range 2) it was 3.45 µM; in experiment [3] (CXCR6, run 2, dose range 1) it was 3.7 µM; in experiment [3] (CXCR6, run 2, dose range 2), 3.2 µM; in experiment [4] (dose range 1), 3.53 µM; in experiment [4] (setting [5]) it was 3.82 µM. For the same compound, the IC50 in experiment [4] (run 2, dose range 1) is 3.74 µM; in experiment [4] (run 3, dose range 1), 4.18 µM.

For the compound `Cc1cc(C)c2c(=O)n(CC(=O)Nc3cccc(Cl)c3C)sc2n1`, the IC50 in experiment [1] (dose range 1) was > 80 µM (inactive); in experiment [1] (setting [5]) it was more than 80 µM; in experiment [2] (CCR6, dose range 1), 1.85 µM; in experiment [2] (setting [6]), 2.69 µM; in experiment [2] (CCR6, run 2, dose range 1), 3.52 µM; in experiment [3] (CXCR6, dose range 1), 2.68 µM. In addition, the IC50 in experiment [3] (setting [7]) was 2.42 µM; in experiment [3] (CXCR6, run 2, dose range 1) it was 2.16 µM; in experiment [4] (dose range 1), 1.69 µM; in experiment [4] (setting [5]) it was 3.11 µM; in experiment [4] (run 2, dose range 1), 5.55 µM; in experiment [4] (run 3, dose range 1) it was 2.1 µM. In addition, in experiment [3] (CXCR6, run 1, dose range 2, at 40 µM (top of the series)), the inhibition worked out at 96.5%.

For `COc1ccc(/C=C/c2ccc3cccc(O)c3n2)c(OC)c1OC`, the IC50 was > 80 µM (inactive) in experiment [1] (dose range 1); more than 80 µM in experiment [1] (setting [5]); 3.71 µM in experiment [2] (CCR6, dose range 1); 3.08 µM in experiment [2] (setting [6]); 2.45 µM in experiment [2] (CCR6, run 2, dose range 1); 5 µM in experiment [3] (CXCR6, dose range 1). Also, the IC50 in experiment [3] (setting [7]) was 4.12 µM; in experiment [3] (CXCR6, run 1, dose range 2), 3.43 µM; in experiment [3] (CXCR6, run 2, dose range 1) it was 5.18 µM; in experiment [3] (CXCR6, run 2, dose range 2), 2.88 µM; in experiment [4] (dose range 1), 4.95 µM; in experiment [4] (setting [5]), 6.97 µM. Besides, the IC50 worked out at 8.96 µM in experiment [4] (run 2, dose range 1) and 6.98 µM in experiment [4] (run 3, dose range 1).
